Source: the SangsterLogP compilation
Each block holds one compound with its values, some of them ahead of it.

What was measured:
[1] = method code SF-RC, from DOI: 10.1002/ps.2780410303; conditions: pH 2.5
[2] = not given; remark: listed apart in the source
[3] = method code SF, from DOI: 10.1021/jm200015a, PMID: 21630666; conditions: pH 7.4
[4] = method code SF-AS, from DOI: 10.1016/0378-5173(86)90115-8
[5] = not given; remark: listed apart in the source
[6] = method code SF-AS, from DOI: 10.1016/s0969-8051(99)00063-3, PMID: 10628565; conditions: pH 7.0
[7] = method code SF, from DOI: 10.1016/0378-5173(90)90261-2; conditions: pH 3.0
[8] = not given; remark: listed apart in the source
[9] = not given; remark: listed apart in the source
[10] = not given; remark: listed apart in the source
[11] = not given; remark: listed apart in the source
[12] = not given; remark: listed apart in the source
[13] = method code SF-AS, from DOI: 10.1021/jm00395a009, PMID: 3681892; conditions: pH 7.4
[14] = not given; remark: listed apart in the source
[15] = not given; remark: listed apart in the source
[16] = method code SF-HPLC, from Yu, G.; Xu, X. (1993). Determination of the 1-octanol/water partition coefficient of nitro-PAHs. Huanjing Huaxue, 12(4)299-303.
[17] = method code SF, from DOI: 10.1248/cpb.39.1346, PMID: 1914012
[18] = method code SF-AS, from DOI: 10.1016/0223-5234(94)90063-9; conditions: pH 2.0
[19] = method code SF-HPLC, from DOI: 10.1023/a:1018903407592, PMID: 8165182; conditions: pH 7.4
[20] = method code SF-HPLC, from DOI: 10.1016/0378-5173(88)90064-6; conditions: pH 7.4
[21] = not given; remark: listed apart in the source
[22] = not given; remark: listed apart in the source

SMILES: COCc1cnc(C2=NC(C)(C(C)C)C(=O)N2)c(C(=O)O)c1 (stereo not given)
logD [1]: 0.47

SMILES: Clc1cc2oc3cc(Cl)c(Cl)c(Cl)c3c2c(Cl)c1Cl
logP: 7.57

logP [2]: 0.8
SMILES: Cc1cn(C2CC(N=[N+]=[N-])C(COC(=O)c3ccncc3)O2)c(=O)[nH]c1=O (stereo not given)

logD [3]: 0.9
SMILES: O=c1c2c([nH]c3ccc(Br)cc13)CCSC2

SMILES: CCCCC(=O)N(C)c1ccc(S(=O)(=O)N(C)C)cc1
logP [4]: 1.63

logP [5]: 0.51
SMILES: CC1=C(C)C(O)N(c2cccc(N)c2)C1=O (stereo not given)

logD [6]: 0.4
SMILES: O=c1[nH]c(Nc2ccccc2)nc2c1ncn2C1CC(O)C(CO)O1 (stereo not given)

logD [7]: 4.09
SMILES: O=C(O)CCCCCCCc1ccccc1

logP [8]: 4.31
SMILES: COc1cccc(Nc2ccccc2C(=O)O)c1

logP [9]: 4.1
SMILES: O=C1CCCCCCCCCCC1

logP [9]: 5.11
SMILES: Fc1ccc(-c2ccc(-c3ccc(F)cc3)o2)cc1

SMILES: O=C(O)c1cc(Oc2ccc(C(F)(F)F)cc2Cl)ccc1[N+](=O)[O-]
logP [10]: 4.26

SMILES: CC(C)C(C(=O)O)c1ccc(Cl)cc1 (stereo not given)
logP [11]: 3.38

logP [2]: -1.25
SMILES: CC(=O)OCC1OC(n2ccc(N)nc2=O)C(O)C1O (stereo not given)

SMILES: CN(C(=O)CCO)c1ccc(S(=O)(=O)N(C)C)cc1
logP [4]: -0.26

logP [12]: 1.92
SMILES: CSCCC(NC(C)=O)C(=O)Nc1nnc(-c2cccc(Cl)c2Cl)c(N)n1 (stereo not given)

logD [13]: 1.51
SMILES: CC(=O)OCC1OC(n2ccc(=O)n(Cc3ccccc3)c2=O)C(OC(C)=O)C1OC(C)=O (stereo not given)

logP [14]: 4.02
SMILES: Cc1ccccc1NS(=O)(=O)c1c(O)c(Cl)cc(Cl)c1Cl

logD [13]: -0.3
SMILES: COC1OC(n2ccc(=O)[nH]c2=O)C(OC)C1OC (stereo not given)

SMILES: Brc1c(Br)c(Br)c(Oc2c(Br)c(Br)c(Br)c(Br)c2Br)c(Br)c1Br
logP [15]: 9.56

logP [9]: 3.78
SMILES: COc1ccc(C(c2ccc(OC)cc2)C(Cl)Cl)cc1

logP [14]: 3.74
SMILES: O=S(=O)(Nc1ccccc1)c1c(O)c(Cl)cc(Cl)c1Cl

SMILES: CCCN(CCCl)c1c([N+](=O)[O-])cc(C(F)(F)F)cc1[N+](=O)[O-]
logP [10]: 4.63

logP [16]: 3.69
SMILES: O=[N+]([O-])c1cccc(-c2ccccc2)c1

logP [15]: 6.89
SMILES: Brc1cc(Br)c(-c2cc(Br)ccc2Br)c(Br)c1

logP [17]: -0.46
SMILES: O=[N+]([O-])c1cccc(O[C@@H]2O[C@H](CO)[C@@H](O)[C@H](O)[C@H]2O)c1

logP [5]: 3.13
SMILES: CC1=C(C)C(O)N(c2ccc(C(F)(F)F)cc2)C1=O (stereo not given)

logD [18]: 0.11
SMILES: COc1ccc(C(=O)c2ncc(CC(=O)O)n2C)cc1

logP [8]: 3.43
SMILES: O=C(O)c1ccccc1Nc1cccc(O)c1

logD [19]: 0.93
SMILES: CCCCCC(=O)OCCOCn1cnc2c(=O)[nH]c(N)nc21

logP [2]: 0.45
SMILES: CC(=O)OC[C@H]1O[C@@H](n2cc(C)c(=O)[nH]c2=O)C[C@@H]1N=[N+]=[N-]

logD [20]: 0.86
SMILES: CN(CCO)C(=O)COC(=O)c1ccccc1O

logP [10]: 4.07
SMILES: COC(=O)C(C)Oc1ccc(Oc2ncc(C(F)(F)F)cc2Cl)cc1 (stereo not given)

logP [14]: 3.66
SMILES: O=S(=O)(Nc1ccc(Cl)cc1)c1cc(Cl)cc(Cl)c1O

SMILES: Clc1cc2c(c(Cl)c1Cl)Oc1cc(Cl)c(Cl)c(Cl)c1O2
logP [21]: 7.8

logP [15]: 6.49
SMILES: Brc1ccc(-c2cc(Br)ccc2Br)c(Br)c1

logD [20]: 2.05
SMILES: CC(=O)c1ccc2cc(C(C)C(=O)OCC(=O)N(C)C)ccc2c1 (stereo not given)

logP [11]: 3.03
SMILES: CC(C)C(C(=O)O)c1ccc(OC(F)F)cc1 (stereo not given)

logP [22]: 2.6
SMILES: O=C(CCCN1CCC(O)(c2ccc(I)cc2)CC1)c1ccc(F)cc1

logP [12]: 1.1
SMILES: CC(=O)NCC(=O)Nc1nnc(-c2cccc(Cl)c2Cl)c(N)n1
